Biological target: human JAK1 (a.a. 837-1142)
Experiment: In vitro JAK kinase assay (HTRF, phosphorylation of a biotinylated peptide), JAK1
Assay type: biochemical
Conditions: measured at 1 mM ATP; JAK2 IC50 / JAK1 IC50
Protocol: Compounds herein were tested for inhibitory activity of JAK targets according to the following in vitro assay described in Park et al., Analytical Biochemistry 1999, 269, 94-104. The catalytic domains of human JAK1 (a.a. 837-1142), Jak2 (a.a. 828-1132) and Jak3 (a.a. 781-1124) with an N-terminal His tag were expressed using baculovirus in insect cells and purified. The catalytic activity of JAK1, JAK2 or JAK3 was assayed by measuring the phosphorylation of a biotinylated peptide. The phosphorylated peptide was detected by homogenous time resolved fluorescence (HTRF). […] Reactions were carried out at room temperature for 1 hr and then stopped with 20 μL 45 mM EDTA, 300 nM SA-APC, 6 nM Eu-Py20 in assay buffer (Perkin Elmer, Boston, Mass.). Binding to the Europium labeled antibody took place for 40 minutes and HTRF signal was measured on a Fusion plate reader (Perkin Elmer, Boston, Mass.).

IC50 Ratio JAK2/JAK1 | Structure (SMILES)
1.8 | CC1CC(N2CC(CC#N)(n3cc(-c4ncnc5[nH]ccc45)cn3)C2)CCN1Cc1c(F)cccc1Cl (single isomer, unassigned) [Example 244, {1-[1-(2-chloro-6-fluorobenzyl)-2-methylpiperidin-4-yl]-3-[4-(7H-pyrrolo[2,3-d]pyrimidin-4-yl)-1H-pyrazol-1-yl]azetidin-3-yl}acetonitrile]
11.0 | N#CCC1(n2cc(-c3ncnc4[nH]ccc34)cn2)CN(C2CCN(C(=O)c3cc(F)cc(F)c3)CC2)C1 [Example 3, {1-[1-(3,5-difluorobenzoyl)piperidin-4-yl]-3-[4-(7H-pyrrolo[2,3-d]pyrimidin-4-yl)-1H-pyrazol-1-yl]azetidin-3-yl}acetonitrile]
12.0 | COc1ccc(C(=O)N2CCC(N3CC(CC#N)(n4cc(-c5ncnc6[nH]ccc56)cn4)C3)CC2)cc1F [Example 5, {1-[1-(3-fluoro-4-methoxybenzoyl)piperidin-4-yl]-3-[4-(7H-pyrrolo[2,3-d]pyrimidin-4-yl)-1H-pyrazol-1-yl]azetidin-3-yl}acetonitrile]
11.0 | N#CCC1(n2cc(-c3ncnc4[nH]ccc34)cn2)CN(C2CCN(C(=O)C3CCCCC3)CC2)C1 [Example 8, {1-[1-(cyclohexylcarbonyl)piperidin-4-yl]-3-[4-(7H-pyrrolo[2,3-d]pyrimidin-4-yl)-1H-pyrazol-1-yl]azetidin-3-yl}acetonitrile]
3.2 | N#CCC1(n2cc(-c3ncnc4[nH]ccc34)cn2)CN(C2CCN(C(=O)c3ccccc3)CC2)C1 [Example 9, {1-(1-benzoylpiperidin-4-yl)-3-[4-(7H-pyrrolo[2,3-d]pyrimidin-4-yl)-1H-pyrazol-1-yl]azetidin-3-yl}acetonitrile]
4.4 | N#CCC1(n2cc(-c3ncnc4[nH]ccc34)cn2)CN(C2CCN(C(=O)c3ccccc3C#N)CC2)C1 [Example 10, 2-[(4-{3-(cyanomethyl)-3-[4-(7H-pyrrolo[2,3-d]pyrimidin-4-yl)-1H-pyrazol-1-yl]azetidin-1-yl}piperidin-1-yl)carbonyl]benzonitrile]
7.2 | N#CCC1(n2cc(-c3ncnc4[nH]ccc34)cn2)CN(C2CCN(C(=O)c3cccc(C#N)c3)CC2)C1 [Example 11, 3-[(4-{3-(cyanomethyl)-3-[4-(7H-pyrrolo[2,3-d]pyrimidin-4-yl)-1H-pyrazol-1-yl]azetidin-1-yl}piperidin-1-yl)carbonyl]benzonitrile]
5.2 | N#CCC1(n2cc(-c3ncnc4[nH]ccc34)cn2)CN(C2CCN(C(=O)c3ccc(C#N)cc3)CC2)C1 [Example 12, 4-[(4-{3-(cyanomethyl)-3-[4-(7H-pyrrolo[2,3-d]pyrimidin-4-yl)-1H-pyrazol-1-yl]azetidin-1-yl}piperidin-1-yl)carbonyl]benzonitrile]
5.3 | N#CCC1(n2cc(-c3ncnc4[nH]ccc34)cn2)CN(C2CCN(C(=O)c3cccc(Cl)n3)CC2)C1 [Example 13, {1-{1-[(6-chloropyridin-2-yl)carbonyl]piperidin-4-yl}-3-[4-(7H-pyrrolo[2,3-d]pyrimidin-4-yl)-1H-pyrazol-1-yl]azetidin-3-yl}acetonitrile]
3.2 | N#CCC1(n2cc(-c3ncnc4[nH]ccc34)cn2)CN(C2CCN(C(=O)c3cnccn3)CC2)C1 [Example 14, {1-[1-(pyrazin-2-lcarbonyl)piperidin-4-yl]-3-[4-(7H-pyrrolo[2,3-d]pyrimidin-4-yl)-1H-pyrazol-1-yl]azetidin-3-l}acetonitrile]
5.3 | N#CCC1(n2cc(-c3ncnc4[nH]ccc34)cn2)CN(C2CCN(C(=O)c3ccsc3)CC2)C1 [Example 15, {3-[4-(7H-pyrrolo[2,3-d]pyrimidin-4-yl)-1H-pyrazol-1-yl]-1-[1-(3-thienylcarbonyl)piperidin-4-yl]azetidin-3-yl}acetonitrile]
2.5 | N#CCC1(n2cc(-c3ncnc4[nH]ccc34)cn2)CN(C2CCN(C(=O)c3ncco3)CC2)C1 [Example 16, {1-[1-(1,3-oxazol-2-ylcarbonyl)piperidin-4-yl]-3-[4-(7H-pyrrolo[2,3-d]pyrimidin-4-yl)-1H-pyrazol-1-yl]azetidin-3-yl}acetonitrile]
4.2 | N#CCC1(n2cc(-c3ncnc4[nH]ccc34)cn2)CN(C2CCN(C(=O)c3cccc(Br)c3)CC2)C1 [Example 20, {1-[1-(3-bromobenzoyl)piperidin-4-yl]-3-[4-(7H-pyrrolo[2,3-d]pyrimidin-4-yl)-1H-pyrazol-1-yl]azetidin-3-yl}acetonitrile]
3.2 | N#CCC1(n2cc(-c3ncnc4[nH]ccc34)cn2)CN(C2CCN(C(=O)c3cccc(OC(F)(F)F)c3)CC2)C1 [Example 21, (3-[4-(7H-pyrrolo[2,3-d]pyrimidin-4-yl)-1H-pyrazol-1-yl]-1-{1-[3-(trifluoromethoxy)benzoyl]piperidin-4-yl}azetidin-3-yl)acetonitrile]
3.2 | N#CCC1(n2cc(-c3ncnc4[nH]ccc34)cn2)CN(C2CCN(C(=O)c3cccc(C(F)(F)F)c3)CC2)C1 [Example 22, (3-[4-(7H-pyrrolo[2,3-d]pyrimidin-4-yl)-1H-pyrazol-1-yl]-1-{1-[3-(trifluoromethyl)benzoyl]piperidin-4-yl}azetidin-3-yl)acetonitrile]
6.7 | N#CCC1(n2cc(-c3ncnc4[nH]ccc34)cn2)CN(C2CCN(C(=O)c3cc(F)cc(C(F)(F)F)c3)CC2)C1 [Example 23, {1-{1-[3-fluoro-5-(trifluoromethyl)benzoyl]piperidin-4-yl}-3-[4-(7H-pyrrolo[2,3-d]pyrimidin-4-yl)-1H-pyrazol-1-yl]azetidin-3-yl}acetonitrile]
6.6 | N#CCC1(n2cc(-c3ncnc4[nH]ccc34)cn2)CN(C2CCN(C(=O)c3cc(Cl)cc(Cl)c3)CC2)C1 [Example 24, {1-[1-(3,5-dichlorobenzoyl)piperidin-4-yl]-3-[4-(7H-pyrrolo[2,3-d]pyrimidin-4-yl)-1H-pyrazol-1-yl]azetidin-3-yl}acetonitrile]
5.8 | N#CCC1(n2cc(-c3ncnc4[nH]ccc34)cn2)CN(C2CCN(C(=O)c3cccc(F)c3)CC2)C1 [Example 25, {1-[1-(3-fluorobenzoyl)piperidin-4-yl]-3-[4-(7H-pyrrolo[2,3-d]pyrimidin-4-yl)-1H-pyrazol-1-yl]azetidin-3-yl}acetonitrile]
3.3 | COc1cc(C(=O)N2CCC(N3CC(CC#N)(n4cc(-c5ncnc6[nH]ccc56)cn4)C3)CC2)ccc1F [Example 26, {1-[1-(4-fluoro-3-methoxybenzoyl)piperidin-4-yl]-3-[4-(7H-pyrrolo[2,3-d]pyrimidin-4-yl)-1H-pyrazol-1-yl]azetidin-3-yl}acetonitrile]
5.1 | COc1ccc(F)c(C(=O)N2CCC(N3CC(CC#N)(n4cc(-c5ncnc6[nH]ccc56)cn4)C3)CC2)c1 [Example 27, {1-[1-(2-fluoro-5-methoxybenzoyl)piperidin-4-yl]-3-[4-(7H-pyrrolo[2,3-d]pyrimidin-4-yl)-1H-pyrazol-1-yl]azetidin-3-yl}acetonitrile]
8.5 | N#CCC1(n2cc(-c3ncnc4[nH]ccc34)cn2)CN(C2CCN(C(=O)c3cc(F)cc(Cl)c3)CC2)C1 [Example 28, {1-[1-(3-chloro-5-fluorobenzoyl)piperidin-4-yl]-3-[4-(7H-pyrrolo[2,3-d]pyrimidin-4-yl)-1H-pyrazol-1-yl]azetidin-3-yl}acetonitrile]

Source: patent US10695337B2, “Piperidin-4-yl azetidine derivatives as JAK1 inhibitors” (Incyte Corporation, priority 2010, dated 2020)
